The record followed here is patent US8344181B2, “N-2 adamantanyl-2-phenoxy-acetamide derivatives as 11-beta hydroxysteroid dehydrogenase inhibitors” (Janssen Pharmaceutica N.V., priority 2004, dated 2013).

Molecules are shown by their SMILES.

One assay concerns the target T1, 11β-HSD2 (Homo sapiens, UniProt P80365).
T1 construct: endogenous in cells; host or cells: HepG2 (ATCC HB-8065)
T1 sequence (P80365 1-405): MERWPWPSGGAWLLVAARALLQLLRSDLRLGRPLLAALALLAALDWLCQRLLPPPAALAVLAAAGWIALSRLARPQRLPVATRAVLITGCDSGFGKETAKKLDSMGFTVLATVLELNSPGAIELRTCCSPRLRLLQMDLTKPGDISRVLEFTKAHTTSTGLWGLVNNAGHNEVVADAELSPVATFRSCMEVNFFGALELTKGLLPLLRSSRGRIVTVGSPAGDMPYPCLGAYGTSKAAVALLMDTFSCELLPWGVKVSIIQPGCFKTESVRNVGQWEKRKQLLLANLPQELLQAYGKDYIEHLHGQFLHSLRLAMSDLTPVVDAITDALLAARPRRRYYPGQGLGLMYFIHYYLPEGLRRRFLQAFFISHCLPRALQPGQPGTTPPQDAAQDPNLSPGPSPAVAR
Kind of assay: Cellular assay of 11β-HSD2 activity in HepG2 cells. Format: cell-based. The settings on record: 4 hour pre-incubation, 10^-5M to 10^-10M, read-out: HSD2 cellular HepG2 Score. On the procedure:
The effects on 11β-HSD2 activity was studied in HepG2 and LCC-PK1-cells HepG2-cells (ATCC HB-8065) were seeded in 12 well plates at a density of 100,000 cells/ml and grown at 37° C. in a humidified 5% CO2 atmosphere in MEM-Rega-3 medium supplemented with 10% heat inactivated foetal calf serum, 2 mM L-glutamine and sodium bicarbonate). Medium was refreshed twice a week.
Following a 4 hour pre-incubation with test compound, 0.5 μCi ^3H-cortisol or corticosterone, was added to the cultures. One hour later, the medium was extracted on Extrelut^3-columns with 15 ml diethyl ether and the extract was analysed by HPLC as described above.
(§1) As for the enzymatic assays, the compounds to be tested were taken from a stock solution and tested at a final concentration ranging from 10^−5M to 10^−10M. From the thus obtained dose response curves, the pIC50 value was calculated and scored as follows; Score 1=pIC50 value<5, Score 2=pIC50 value in the range of 5 to 6, Score 3=pIC50 value>6. (in this table NT stands for Not Tested).

A further assay deals with T2, 11β-HSD1 (Mus musculus, UniProt P50172).
T2 construct: endogenous in cells; host or cells: 3T3-L1 (ATCC-CL-173), differentiated into adipocytes
T2 sequence (P50172 whole entry): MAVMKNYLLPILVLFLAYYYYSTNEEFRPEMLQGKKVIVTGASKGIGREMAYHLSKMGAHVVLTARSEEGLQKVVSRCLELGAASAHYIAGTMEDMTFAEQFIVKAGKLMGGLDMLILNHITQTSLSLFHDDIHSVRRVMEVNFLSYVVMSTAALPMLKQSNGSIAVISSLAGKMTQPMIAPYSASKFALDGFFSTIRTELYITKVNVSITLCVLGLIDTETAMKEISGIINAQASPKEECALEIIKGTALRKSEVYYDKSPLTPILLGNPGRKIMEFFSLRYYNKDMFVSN
Put plainly: Cellular assay of 11β-HSD1 activity in differentiated 3T3-L1 cells. Format: cell-based. Particulars: 4 hour pre-incubation, 10^-5M to 10^-10M, read-out: HSD1 cellular 3T3-L1 Score. On the procedure:
The effects on 11β-HSD1 activity was measured in differentiated 3T3-L1 cells and rat hepatocytes.
Mouse fibroblast 3T3-L1 cells (ATCC-CL-173) were seeded at a density of 16500 cells/ml in 12 well plates and grown for 7 days in DMEM medium (supplemented with 10% heat inactivated foetal calf serum, 2 mM glutamine and 25 mg gentamycin) at 37° C. in a humidified 5% CO2 atmosphere. Medium was refreshed twice a week. Fibroblasts were differentiated into adipocytes at 37° C. in a 5% CO2 humidified atmosphere in growth medium containing 2 μg/ml insulin, 55 μg/ml IBMX and 39.2 μg/ml dexamethasone.
Primary hepatocytes from male rats were seeded on normal Falcon 12 well plates at a density of 250000 cells/well and incubated for 16 hours at 37° C. in a 5% CO2 humidified atmosphere in DMEM-HAM's F12 medium containing 5% Nu-serum, 100 U/ml penicillin, 100 μg/ml streptomycin, 0.25 μg/ml amphotericin B, 50 μg/ml gentamycin sulfate, 5 μg/ml insulin and 392 ng/ml dexamethasone. Following a 4 hour pre-incubation with test compound, 0.5 μCi ^3H-cortisone or dehydrocorticosterone, was added to the 3T3-L1 cultures. One hour later, the medium was extracted on Extrelut^3-columns with 15 ml diethyl ether and the extract was analysed by HPLC as described above. The effects of JNJ-compounds on rat hepatocyte HSD1 activity was measured after an incubation period of 90 minutes with 0.5 μCi^3H-dehydrocorticosterone. Corticosterone formation was analysed by HPLC.
as §1

`Cc1cc(Cl)ccc1OC(C)(C)C(=O)N[C@H]1[C@@H]2CC3C[C@H]1C[C@](NC(=O)CCl)(C3)C2` [Compound 31]: the IC50 at 11β-HSD2 is 1000 to 10000 nM; at 11β-HSD1, below 1000 nM. Turning to `Cc1cc(Cl)ccc1OC(C)(C)C(=O)N[C@H]1[C@@H]2CC3C[C@H]1C[C@](NC(=O)CN(C)CCO)(C3)C2` [Compound 42], the figures for the IC50 on 11β-HSD2 and at 11β-HSD1 were 1000 to 10000 nM and below 1000 nM, respectively. In the case of `Cc1ccc(OC(C)(C)C(=O)N[C@H]2[C@@H]3CC4C[C@H]2C[C@](O)(C4)C3)cc1` [Compound 13], the IC50 at 11β-HSD2 and on 11β-HSD1 was below 1000 nM in each case. On to `CC(=O)N[C@@]12CC3C[C@H](C1)[C@H](NC(=O)C(C)(C)Nc1cccc(C(F)(F)F)c1)[C@@H](C3)C2` [Compound 65], for which the IC50 was above 10000 nM on 11β-HSD2 and below 1000 nM on 11β-HSD1. For `CC(C)(Oc1ccc(Cl)cc1)C(=O)N[C@H]1[C@@H]2CC3C[C@H]1C[C@](NC(=O)CCl)(C3)C2` [Compound 94], the IC50 on 11β-HSD2 was 1000 to 10000 nM; on 11β-HSD1 it was below 1000 nM. Consider `CC(C)(C(=O)N[C@H]1[C@@H]2CC3C[C@H]1C[C@](O)(C3)C2)[S+]([O-])c1ccc(Cl)cc1` (stereo partly drawn) [Compound 5], for which the IC50 at 11β-HSD1 is below 1000 nM. In the case of `CCS(=O)(=O)N[C@@]12CC3C[C@H](C1)[C@H](NC(=O)C(C)(C)Oc1cccc(C(F)(F)F)c1)[C@@H](C3)C2` [Compound 87], the IC50 was 1000 to 10000 nM on 11β-HSD2 and below 1000 nM at 11β-HSD1. For `Cc1cc(Cl)ccc1OC(C)(C)C(=O)N[C@H]1[C@@H]2CC3C[C@H]1C[C@](NS(C)(=O)=O)(C3)C2` [Compound 33], in that order: 1000 to 10000 nM and below 1000 nM. For the compound `O=C(N[C@H]1[C@@H]2CC3C[C@H]1C[C@](O)(C3)C2)[C@@H]1CCc2cc(F)ccc2O1` [Compound 22], the IC50 at 11β-HSD2 is 1000 to 10000 nM; at 11β-HSD1 it was below 1000 nM. For the compound `Cc1ccccc1OC(C)(C)C(=O)N[C@H]1[C@@H]2CC3C[C@H]1C[C@](N)(C3)C2` [Compound 103], the IC50 on 11β-HSD1 is below 1000 nM.

Take `CN(C)S(=O)(=O)N[C@@]12CC3C[C@H](C1)[C@H](NC(=O)C(C)(C)Oc1cccc(C(F)(F)F)c1)[C@@H](C3)C2` [Compound 92]: the IC50 on 11β-HSD2 is 1000 to 10000 nM; at 11β-HSD1, below 1000 nM. In the case of `CN1CC(C(=O)N[C@@H]2[C@@H]3CC4C[C@H]2C[C@@](O)(C4)C3)Oc2ccccc21` (stereo partly drawn) [Compound 6], the IC50 at 11β-HSD2 was above 10000 nM; at 11β-HSD1 it was below 1000 nM.

`CC(C)(Oc1cccc(Br)c1)C(=O)N[C@H]1[C@@H]2CC3C[C@H]1C[C@](NC(=O)CCl)(C3)C2` [Compound 90]: the IC50 is 1000 to 10000 nM at 11β-HSD2 and below 1000 nM at 11β-HSD1. Turning to `COC(=O)c1cccc(NC(C)(C)C(=O)N[C@H]2[C@@H]3CC4C[C@H]2C[C@](O)(C4)C3)c1` [Compound 75], the IC50 was above 10000 nM on 11β-HSD2 and below 1000 nM at 11β-HSD1. As for `Cc1ccc(NC(C)(C)C(=O)N[C@H]2[C@@H]3CC4C[C@H]2C[C@](F)(C4)C3)cc1` [Compound 62], the IC50 on 11β-HSD2 was above 10000 nM; on 11β-HSD1, below 1000 nM. As for `Cc1cccc(NC(C)(C)C(=O)N[C@H]2[C@@H]3CC4C[C@H]2C[C@](F)(C4)C3)c1` [Compound 57], the IC50 on 11β-HSD2 is above 10000 nM; on 11β-HSD1 it was below 1000 nM. On to `COc1cc(F)ccc1OC(C)(C)C(=O)N[C@H]1[C@@H]2CC3C[C@H]1C[C@](N)(C3)C2` [Compound 105], for which the IC50 on 11β-HSD1 was below 1000 nM. As to `COC(=O)c1cccc(NC(C)(C)C(=O)N[C@H]2[C@@H]3CC4C[C@H]2C[C@](F)(C4)C3)c1` [Compound 78], the IC50 at 11β-HSD1 was below 1000 nM. In the case of `CN(C)CCCO[C@@]12CC3C[C@H](C1)[C@H](NC(=O)C(C)(C)Oc1cccc(Cl)c1)[C@@H](C3)C2` [Compound 44], the results for the IC50 on 11β-HSD2 and on 11β-HSD1 were 1000 to 10000 nM and below 1000 nM, respectively. Take `Cc1cc(Cl)ccc1OC(C)(C)C(=O)N[C@H]1[C@@H]2CC3C[C@H]1C[C@](NS(=O)(=O)N(C)C)(C3)C2` [Compound 30]: the IC50 is 1000 to 10000 nM at 11β-HSD2 and below 1000 nM on 11β-HSD1.

Turning to `COc1cccc(NC(C)(C)C(=O)N[C@H]2[C@@H]3CC4C[C@H]2C[C@](NC(C)=O)(C4)C3)c1` [Compound 66], the figures for the IC50 at 11β-HSD2 and at 11β-HSD1 were 1000 to 10000 nM and below 1000 nM, respectively. Regarding `COc1cc(OC)cc(OC(C)(C)C(=O)N[C@H]2[C@@H]3CC4C[C@H]2C[C@](O)(C4)C3)c1` [Compound 17], the IC50 at 11β-HSD2 is 1000 to 10000 nM; on 11β-HSD1 it was below 1000 nM. In the case of `Cc1ccccc1NC(C)(C)C(=O)N[C@H]1[C@@H]2CC3C[C@H]1C[C@](O)(C3)C2` [Compound 34], the IC50 is 1000 to 10000 nM on 11β-HSD2 and below 1000 nM at 11β-HSD1. The matching figures for `CCC(=O)N[C@@]12CC3C[C@H](C1)[C@H](NC(=O)C(C)(C)Oc1ccc(Cl)cc1C)[C@@H](C3)C2` [Compound 63]: below 1000 nM and below 1000 nM. In the case of `COC(=O)CC(=O)N[C@@]12CC3C[C@H](C1)[C@H](NC(=O)C(C)(C)Oc1ccc(Cl)cc1C)[C@@H](C3)C2` [Compound 38], the IC50 on 11β-HSD2 was 1000 to 10000 nM; at 11β-HSD1 it was below 1000 nM. `CC(=O)Nc1cccc(OC(C)(C)C(=O)N[C@H]2[C@@H]3CC4C[C@H]2C[C@](O)(C4)C3)c1` [Compound 19]: the IC50 at 11β-HSD2 and at 11β-HSD1 was below 1000 nM in each case.

Take `CC(C)(Oc1cccc(Br)c1)C(=O)N[C@H]1[C@@H]2CC3C[C@H]1C[C@](NC(=O)OCCCl)(C3)C2` [Compound 98]: the IC50 at 11β-HSD1 is below 1000 nM. For `Cc1cc(C)cc(OC(C)(C)C(=O)N[C@H]2[C@@H]3CC4C[C@H]2C[C@](O)(C4)C3)c1` [Compound 16], the IC50 on 11β-HSD2 and on 11β-HSD1 was below 1000 nM each time. For `Cc1ccc(S(=O)(=O)N[C@@]23CC4C[C@H](C2)[C@H](NC(=O)C(C)(C)Oc2cccc(C(F)(F)F)c2)[C@@H](C4)C3)cc1` [Compound 89], the values for the IC50 at 11β-HSD2 and on 11β-HSD1 were above 10000 nM and below 1000 nM, respectively.

`CC(C)(Oc1cc(C(F)(F)F)ccc1Cl)C(=O)N[C@H]1[C@@H]2CC3C[C@H]1C[C@](N)(C3)C2` [Compound 101]: the IC50 at 11β-HSD1 is below 1000 nM.

Take `CC(C)(Oc1cccc(C(F)(F)F)c1Cl)C(=O)N[C@H]1[C@@H]2CC3C[C@H]1C[C@](N)(C3)C2` [Compound 100]: the IC50 at 11β-HSD1 is below 1000 nM. Turning to `CC(C)(Nc1cccc(C(=O)O)c1)C(=O)N[C@H]1[C@@H]2CC3C[C@H]1C[C@](F)(C3)C2` [Compound 82], the IC50 at 11β-HSD1 was 1000 to 10000 nM. Turning to `COC(=O)c1ccc(NC(C)(C)C(=O)NC2[C@@H]3CC4C[C@H]2C[C@](F)(C4)C3)cc1` (stereo partly drawn) [Compound 96], the IC50 on 11β-HSD1 was 1000 to 10000 nM. Same read-out and setting: under `CC(C)(Oc1ccccc1C(F)(F)F)C(=O)N[C@H]1[C@@H]2CC3C[C@H]1C[C@](N)(C3)C2` [Compound 102] stands below 1000 nM; under `Cc1cc(Cl)ccc1OC(C)(C)C(=O)N[C@H]1[C@@H]2CC3C[C@H]1C[C@](NC(=O)NC(C)(C)C)(C3)C2` [Compound 71], 1000 to 10000 nM; under `CC(C)(Nc1cccc(C(=O)O)c1)C(=O)N[C@H]1[C@@H]2CC3C[C@H]1C[C@](O)(C3)C2` [Compound 86], 1000 to 10000 nM. In the case of `COC(=O)c1ccc(NC(C)(C)C(=O)N[C@H]2[C@@H]3CC4C[C@H]2C[C@](O)(C4)C3)cc1` [Compound 79], the IC50 at 11β-HSD1 was below 1000 nM.

As to `CC(=O)N[C@@]12CC3C[C@H](C1)C(NC(=O)C(C)(C)Nc1cccc(C(=O)O)c1)[C@@H](C3)C2` (stereo partly drawn) [Compound 97], at 11β-HSD1, the IC50 was above 10000 nM. For the compound `CC(C)(Oc1ccccc1Cl)C(=O)N[C@H]1[C@@H]2CC3C[C@H]1C[C@](N)(C3)C2` [Compound 99], the IC50 at 11β-HSD1 is below 1000 nM.
